Legend:
Assay in all cases: relative viability (nuclei count vs DMSO), 5 days (fraction); higher = more cells survive
[1] = compound: Cn1cncc1[C@@](N)(c1ccc(Cl)cc1)c1ccc2c(c1)c(-c1cccc(Cl)c1)cc(=O)n2C [Tipifarnib] + CC(C)C[C@H](NC(=O)[C@H](Cc1ccccc1)NC(=O)c1cnccn1)B(O)O [Bortezomib] (partner 0.002 µM)
Summary of the method: (§1)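 After 5 days of treatment, lung cancer cells in 1536-well plates were fixed and stained in a single step (final 0.05% Triton X-100, 1% formaldehyde, 1 ug/ml Hoechst) and their nuclei counted on 4× images. Treatment had been applied by pin tool the day after seeding as one drug alone or as a fixed anchor-drug dose with five library-drug doses (not always all listed) in √10 steps. Relative viability is the nuclei count of treated wells divided by that of vehicle wells, and values are medians of duplicate plates.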

[2] = compound: Cn1cncc1[C@@](N)(c1ccc(Cl)cc1)c1ccc2c(c1)c(-c1cccc(Cl)c1)cc(=O)n2C [Tipifarnib] + CS(=O)(=O)CCNCc1ccc(-c2ccc3ncnc(Nc4ccc(OCc5cccc(F)c5)c(Cl)c4)c3c2)o1 [Lapatinib] (partner 2 µM)
Summary of the method: as §1

[3] = compound: Cn1cncc1[C@@](N)(c1ccc(Cl)cc1)c1ccc2c(c1)c(-c1cccc(Cl)c1)cc(=O)n2C [Tipifarnib] + NC(=O)Nc1cc(-c2cccc(F)c2)sc1C(=O)N[C@H]1CCCNC1 [AZD7762] (partner 0.2 µM)
Summary of the method: as §1

[4] = compound: Cn1cncc1[C@@](N)(c1ccc(Cl)cc1)c1ccc2c(c1)c(-c1cccc(Cl)c1)cc(=O)n2C [Tipifarnib] + Nc1ncn([C@H]2C[C@H](O)[C@@H](CO)O2)c(=O)n1 [Decitabine] (partner 2 µM)
Summary of the method: as §1

EMC-BAC-2
relative viability ([1]; first compound 0.01 µM): 1.03
relative viability ([1]; first compound 0.03162 µM): 1
relative viability ([1]; first compound 0.1 µM): 0.937
relative viability ([1]; first compound 0.3162 µM): 0.924
relative viability ([1]; first compound 1 µM): 0.749
relative viability ([2]; first compound 0.01 µM): 0.897
relative viability ([2]; first compound 0.03162 µM): 0.854
relative viability ([2]; first compound 0.1 µM): 0.771
relative viability ([2]; first compound 0.3162 µM): 0.718
relative viability ([2]; first compound 1 µM): 0.351
relative viability ([3]; first compound 0.01 µM): 0.981
relative viability ([3]; first compound 0.03162 µM): 0.952
relative viability ([3]; first compound 0.1 µM): 0.944
relative viability ([3]; first compound 0.3162 µM): 0.822
relative viability ([3]; first compound 1 µM): 0.536
relative viability ([4]; first compound 0.01 µM): 1.11
relative viability ([4]; first compound 0.03162 µM): 0.853
relative viability ([4]; first compound 0.1 µM): 0.84
relative viability ([4]; first compound 0.3162 µM): 0.681
relative viability ([4]; first compound 1 µM): 0.562

EPLC-272H
relative viability ([1]; first compound 0.01 µM): 0.987
relative viability ([1]; first compound 0.03162 µM): 0.195
relative viability ([1]; first compound 0.1 µM): 0.634
relative viability ([1]; first compound 0.3162 µM): 0.577
relative viability ([1]; first compound 1 µM): 0.311
relative viability ([2]; first compound 0.01 µM): 1.02
relative viability ([2]; first compound 0.03162 µM): 0.88
relative viability ([2]; first compound 0.1 µM): 0.761
relative viability ([2]; first compound 0.3162 µM): 0.64
relative viability ([2]; first compound 1 µM): 0.216
relative viability ([3]; first compound 0.01 µM): 0.313
relative viability ([3]; first compound 0.03162 µM): 0.263
relative viability ([3]; first compound 0.1 µM): 0.245
relative viability ([3]; first compound 0.3162 µM): 0.292
relative viability ([3]; first compound 1 µM): 0.118
relative viability ([4]; first compound 0.01 µM): 0.426
relative viability ([4]; first compound 0.03162 µM): 0.404
relative viability ([4]; first compound 0.1 µM): 0.37
relative viability ([4]; first compound 0.3162 µM): 0.298
relative viability ([4]; first compound 1 µM): 0.246

H3255
relative viability ([1]; first compound 0.01 µM): 0.622
relative viability ([1]; first compound 0.03162 µM): 0.647
relative viability ([1]; first compound 0.1 µM): 0.554
relative viability ([1]; first compound 0.3162 µM): 0.561
relative viability ([1]; first compound 1 µM): 0.344
relative viability ([2]; first compound 0.01 µM): 0.249
relative viability ([2]; first compound 0.03162 µM): 0.3
relative viability ([2]; first compound 0.1 µM): 0.27
relative viability ([2]; first compound 0.3162 µM): 0.232
relative viability ([2]; first compound 1 µM): 0.214
relative viability ([3]; first compound 0.01 µM): 1.04
relative viability ([3]; first compound 0.03162 µM): 0.918
relative viability ([3]; first compound 0.1 µM): 0.736
relative viability ([3]; first compound 0.3162 µM): 0.559
relative viability ([3]; first compound 1 µM): 0.514
relative viability ([4]; first compound 0.01 µM): 0.685
relative viability ([4]; first compound 0.03162 µM): 0.556
relative viability ([4]; first compound 0.1 µM): 0.605
relative viability ([4]; first compound 0.3162 µM): 0.48
relative viability ([4]; first compound 1 µM): 0.492

HARA
relative viability ([1]; first compound 0.01 µM): 1.16
relative viability ([1]; first compound 0.03162 µM): 0.938
relative viability ([1]; first compound 0.1 µM): 1.26
relative viability ([1]; first compound 0.3162 µM): 1.12
relative viability ([1]; first compound 1 µM): 0.55
relative viability ([2]; first compound 0.01 µM): 0.737
relative viability ([2]; first compound 0.03162 µM): 0.682
relative viability ([2]; first compound 0.1 µM): 0.735
relative viability ([2]; first compound 0.3162 µM): 0.664
relative viability ([2]; first compound 1 µM): 0.332
relative viability ([3]; first compound 0.01 µM): 0.239
relative viability ([3]; first compound 0.03162 µM): 0.426
relative viability ([3]; first compound 0.1 µM): 0.283
relative viability ([3]; first compound 0.3162 µM): 0.297
relative viability ([3]; first compound 1 µM): 0.166
relative viability ([4]; first compound 0.01 µM): 0.758
relative viability ([4]; first compound 0.03162 µM): 0.593
relative viability ([4]; first compound 0.1 µM): 0.515
relative viability ([4]; first compound 0.3162 µM): 0.625
relative viability ([4]; first compound 1 µM): 0.435

HCC-15
relative viability ([1]; first compound 0.01 µM): 0.921
relative viability ([1]; first compound 0.03162 µM): 0.746
relative viability ([1]; first compound 0.1 µM): 0.868
relative viability ([1]; first compound 0.3162 µM): 0.613
relative viability ([1]; first compound 1 µM): 0.196
relative viability ([2]; first compound 0.01 µM): 0.802
relative viability ([2]; first compound 0.03162 µM): 0.702
relative viability ([2]; first compound 0.1 µM): 0.639
relative viability ([2]; first compound 0.3162 µM): 0.488
relative viability ([2]; first compound 1 µM): 0.215
relative viability ([3]; first compound 0.01 µM): 1.12
relative viability ([3]; first compound 0.03162 µM): 0.998
relative viability ([3]; first compound 0.1 µM): 0.758
relative viability ([3]; first compound 0.3162 µM): 0.799
relative viability ([3]; first compound 1 µM): 0.236
relative viability ([4]; first compound 0.01 µM): 0.496
relative viability ([4]; first compound 0.03162 µM): 0.523
relative viability ([4]; first compound 0.1 µM): 0.48
relative viability ([4]; first compound 0.3162 µM): 0.263
relative viability ([4]; first compound 1 µM): 0.238

HCC-44
relative viability ([1]; first compound 0.01 µM): 0.87
relative viability ([1]; first compound 0.03162 µM): 0.684
relative viability ([1]; first compound 0.1 µM): 0.78
relative viability ([1]; first compound 0.3162 µM): 0.609
relative viability ([1]; first compound 1 µM): 0.461
relative viability ([2]; first compound 0.01 µM): 0.876
relative viability ([2]; first compound 0.03162 µM): 0.898
relative viability ([2]; first compound 0.1 µM): 0.853
relative viability ([2]; first compound 0.3162 µM): 0.767
relative viability ([2]; first compound 1 µM): 0.494
relative viability ([3]; first compound 0.01 µM): 0.943
relative viability ([3]; first compound 0.03162 µM): 0.979
relative viability ([3]; first compound 0.1 µM): 0.959
relative viability ([3]; first compound 0.3162 µM): 0.899
relative viability ([3]; first compound 1 µM): 0.837
relative viability ([4]; first compound 0.01 µM): 0.869
relative viability ([4]; first compound 0.03162 µM): 0.846
relative viability ([4]; first compound 0.1 µM): 0.934
relative viability ([4]; first compound 0.3162 µM): 0.847
relative viability ([4]; first compound 1 µM): 0.804

HCC-78
relative viability ([1]; first compound 0.01 µM): 0.606
relative viability ([1]; first compound 0.03162 µM): 0.45
relative viability ([1]; first compound 0.1 µM): 0.46
relative viability ([1]; first compound 0.3162 µM): 0.469
relative viability ([1]; first compound 1 µM): 0.462
relative viability ([2]; first compound 0.01 µM): 0.661
relative viability ([2]; first compound 0.03162 µM): 0.633
relative viability ([2]; first compound 0.1 µM): 0.514
relative viability ([2]; first compound 0.3162 µM): 0.54
relative viability ([2]; first compound 1 µM): 0.37
relative viability ([3]; first compound 0.01 µM): 0.772
relative viability ([3]; first compound 0.03162 µM): 0.811
relative viability ([3]; first compound 0.1 µM): 0.483
relative viability ([3]; first compound 0.3162 µM): 0.511
relative viability ([3]; first compound 1 µM): 0.415
relative viability ([4]; first compound 0.01 µM): 0.786
relative viability ([4]; first compound 0.03162 µM): 0.756
relative viability ([4]; first compound 0.1 µM): 0.719
relative viability ([4]; first compound 0.3162 µM): 0.664
relative viability ([4]; first compound 1 µM): 0.514

HCC-366
relative viability ([1]; first compound 0.01 µM): 1.09
relative viability ([1]; first compound 0.03162 µM): 0.887
relative viability ([1]; first compound 0.1 µM): 0.483
relative viability ([1]; first compound 0.3162 µM): 0.315
relative viability ([1]; first compound 1 µM): 0.07
relative viability ([2]; first compound 0.01 µM): 0.981
relative viability ([2]; first compound 0.03162 µM): 0.822
relative viability ([2]; first compound 0.1 µM): 0.345
relative viability ([2]; first compound 0.3162 µM): 0.235
relative viability ([2]; first compound 1 µM): 0.039
relative viability ([3]; first compound 0.01 µM): 0.281
relative viability ([3]; first compound 0.03162 µM): 0.304
relative viability ([3]; first compound 0.1 µM): 0.171
relative viability ([3]; first compound 0.3162 µM): 0.0878
relative viability ([3]; first compound 1 µM): 0.0371
relative viability ([4]; first compound 0.01 µM): 0.345
relative viability ([4]; first compound 0.03162 µM): 0.337
relative viability ([4]; first compound 0.1 µM): 0.19
relative viability ([4]; first compound 0.3162 µM): 0.174
relative viability ([4]; first compound 1 µM): 0.16
